As usually defined, the Kd is a measure of binding affinity in units of concentration. A high value points to lower affinity.

One data set relates to GSDME-N. The data set is described as follows: Western blot of cleaved N-terminal GSDME (GSDME-N) in B16F10 cells. It is filed as cell-based, murine. As to conditions: GSH pretreatment 4 h. The procedure: (§1) As for the determination of cleaved-GSDME and cleaved-caspase-3, B16F10 cells were seeded in 6-well culture plates (2×10^5 cells per well) and cultured for 24 h. Then the medium in the corresponding wells except the negative control was replaced with 1 mL of medium containing ferritin degraders, albumin nanoparticles, or the degrader with inhibitors at the indicated concentrations. Incubation for another 6 or 8 h was used to test the cleaved-caspase-3, while treatment for another 16 or 20 h was used to test cleaved-GSDME. The following procedures were the same as mentioned above.
In general terms: A western blot detects proteins with antibodies after separation by electrophoresis.

The next data set deals with cleaved caspase 3. The data set is described as follows: Western blot of cleaved caspase 3 in B16F10 cells. It counts as cell-based, murine. As to conditions: GSH pretreatment 4 h. The method, then:
as §1

Another data set has as its system T1, ferritin (Mus musculus).
T1 construct: ferritin expression levels in B16F10 cells were evaluated; endogenous in cells; host or cells: B16F10 (murine melanoma)
In words: Western blot of ferritin expression (ferritin degradation) in B16F10 cells. It is filed as cell-based, murine. The following applies: Epox 1 μM pretreatment 1 h; for effect on DeFer-2-mediated ferritin degradation: DeFer-2 0.5 μM 12 h, VHL ligand 50 μM in excess. The method, then:
Western blot analysis: After various treatments, ferritin expression levels in B16F10 cells were evaluated to investigate the DeFer-2-mediated ferritin degradation. Briefly, B16F10 cells were seeded in 6-well culture plates (5×10^4 cells per well) and cultured for 24 h. Then the medium in the corresponding wells except the negative control was replaced with 1 mL of medium containing ferritin degraders, albumin nanoparticles, the epimer formulations, the combination of VHL ligand and oleic acid, or the combination of the degrader and VHL ligand at the indicated concentrations. […] The lysates were centrifuged at 12,000 rpm for 10 min at 4° C., followed by quantification of the total proteins in the supernatant through the bicinchoninic acid assay (BCA) assay. Afterward, the proteins in the supernatant were mixed with the loading buffer and heated at 95° C. for 15 min. Equal amounts of proteins from different samples were loaded into 15% SDS-polyacrylamide gel (20 μg protein per lane) to separate target proteins. After separation, proteins were transferred to polyvinylidene fluoride (PVDF) membranes before the membranes were blocked with 5% nonfat milk in PBST. Then proteins were incubated with primary antibodies overnight at 4° C., followed by the incubation with the goat-anti-rabbit IgG H&L (HRP) secondary antibodies at room temperature for 2 h. Finally, the bands were detected with electrochemiluminescence (ECL) western blot substrate for imaging, and ImageJ software was used for quantification.

Data set [1] has as its system B16F10 cells. The data set is described as follows: Cell viability evaluation by CCK-8 assay. The following applies: B16F10 cells, DeFer-2 5 μM; DFOM 25 μM, Z-VAD 10 μM, NSCI 0.1 μM, VX-765 10 μM. The procedure:
Cell viability evaluation: The cell viability of B16F10 cells treated with ferritin degraders with or without various inhibitors was evaluated by CCK-8 assay. Briefly, 5×10^3 cells were seeded in 96-well plates and cultured for 24 h for attachment. Then the medium in the corresponding wells, except the control, was replaced with 100 μL of medium containing the indicated degrader formulations with concentrations of 0.008, 0.04, 0.2, 1, and 5 μM. After incubation for 24 or 48 h, CCK-8 reagent was added and interacted with cells at 37° C. for 1 h. The absorbance was measured by a microplate reader (Infinite M Plex) at the detection wavelength of 450 nm.
For blocking assays with Z-VAD, NSCI, and VX-765, 5×10^3 cells were seeded in 96-well plates and cultured 24 h for attachment. Then the medium in the corresponding wells, except the control, was replaced with 100 μL of medium containing Z-VAD (10 μM), NSCI (0.1 μM), or VX-765 (10 μM). […] Following another 24-h incubation, CCK-8 reagents were added and interacted with cells at 37° C. for 1 h. The absorbance was measured by a microplate reader (Infinite® M Plex) at the detection wavelength of 450 nm. For blocking assays with DFOM, 5×10^3 cells were seeded in 96-well plates and cultured 24 h for attachment. […] Following another 20-h incubation, CCK-8 reagents were added and interacted with cells at 37° C. for 1 h. The absorbance was measured by a microplate reader (Infinite® M Plex) at the detection wavelength of 450 nm.
(In general: Formazan colour is commonly taken as a measure of viable cells.)

Data set [2] has as its system B16F10 cells. In words: LDH release assay. It counts as cell-based, murine. As to conditions: inhibitor pretreatment 4 h, DeFer-2 5 μM, NSCI 0.1 μM, VX-765 10 μM. The method, then: After incubation for 24 h, the cell samples were used to measure LDH release according to the manufacturer's instructions of CytoScan™ LDH Cytotoxicity Assay kit from G-Biosciences (St. Louis, MO, USA).
Following another 24-h incubation, the cell samples were used to measure LDH release according to the manufacturer's instructions of CytoScan™ LDH Cytotoxicity Assay kit from G-Biosciences (St. Louis, MO, USA).

The target of data set [3] is T2, apoferritin from equine spleen (Equus caballus, UniProt P02791).
T2 construct: the apoferritin from equine spleen (A3660, Sigma-Aldrich) that is not combined with iron was used; purchased Sigma-Aldrich A3660; host or cells: equine spleen (tissue-derived)
T2 sequence (P02791 2-175 limits assumed): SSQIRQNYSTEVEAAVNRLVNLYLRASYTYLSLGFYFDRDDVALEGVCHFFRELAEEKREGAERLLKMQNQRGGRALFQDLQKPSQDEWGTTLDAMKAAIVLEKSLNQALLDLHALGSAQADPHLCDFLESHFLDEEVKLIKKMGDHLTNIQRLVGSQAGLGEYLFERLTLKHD
The data set is described as follows: Isothermal titration calorimetry (ITC) binding to ferritin. The method, then: As for the ferritin proteins, the apoferritin from equine spleen (A3660, Sigma-Aldrich) that is not combined with iron was used. Before the ITC test, 1 mL of apoferritin in glycerol solution (50% glycerol and 0.075 M NaCl) was placed in a dialysis bag with a molecular weight cut-off of 3 kDa. The dialysis bags were then immersed in the prepared solution (20 mM Tris-HCl, pH 8.5, and 130 mM NaCl) and stirred at room temperature. The dialysis buffer was changed every 24 h for three times, and the last buffer was collected and 0.05% DMSO was added to serve as the ITC buffer. As for the oleic acid, 12 μM apoferritin in the ITC buffer was placed in the ITC cell, and the syringe was full of 250 μM oleic acid in the same ITC buffer. Besides the first injection with 5 μL of the oleic acid solution, 18 aliquots with 10 μL of the oleic acid solution were titrated into the apoferritin solution with a time interval of 300 s. […] Besides the first injection with 1 μL of the apoferritin solution, 25 aliquots were titrated with a time interval of 300 s. Raw data were corrected for control titrations (the solution in the syringe into the blank ITC buffer in the cell) and integrated using Origin 7.0 (MicroCal). Binding kinetics parameters, including N, Kd, ΔH, and ΔS, were calculated using a single-class binding site model.
In general terms: In ITC the heat of successive injections is recorded.

Where a SMILES comes first, the peptide text is derived from it. The star is where a group is joined. Cbz = O=C(OCc1ccccc1)*; CH2F = FC*

Regarding `N[C@@H](CCC(=O)N[C@@H](CS)C(=O)NCC(=O)O)C(=O)O` [GSH, glutathione, reference compound], in the data set on GSDME-N, the “effect of pretreatment on DeFer-2-caused GSDME-N generation” value was “compromised by GSH pretreatment”. Further, the “effect of pretreatment on DeFer-2-caused caspase 3 activation” value in the data set on cleaved caspase 3 is “substantially reduced activated caspase 3”.
As for `CC[C@H](C)[C@H](NC(=O)[C@H]([C@@H](C)CC)N(C)C(C)=O)C(=O)N[C@H](C(=O)N[C@@H](CC(C)C)C(=O)[C@@]1(C)CO1)[C@@H](C)O` [Epox, epoxomicin, reference compound], the “effect on aDeFer-2-mediated ferritin degradation” value in the data set on ferritin (Mus musculus) (B16F10 cells, 0.5 μM, 12 h) is “compromised the aDeFer-2-mediated ferritin degradation”. Further, the “effect on DeFer-2-mediated ferritin degradation” value in the data set on ferritin (Mus musculus) was “inhibited”.
For `COC(=O)C[C@H](NC(=O)[C@H](C)NC(=O)[C@@H](NC(=O)OCc1ccccc1)C(C)C)C(=O)CF` [Z-VAD, Z-VAD(OMe)-FMK, reference compound] (Cbz-Val-Ala-Asp(OMe)-CH2F), the “effect on DeFer-2-induced cytotoxicity / cell death” value with B16F10 cells [1] is “compromised”.
As for `CCO[C@@H]1OC(=O)C[C@@H]1NC(=O)[C@@H]1CCCN1C(=O)[C@@H](NC(=O)c1ccc(N)c(Cl)c1)C(C)(C)C` [VX-765, reference compound], the “effect on LDH release caused by DeFer-2” value in the data set with B16F10 cells [2] is given as “barely affected”. In the data set on B16F10 cells [1], the “effect on DeFer-2-induced cytotoxicity / cell death” value was “remained unchanged”.
As for `Cc1ncsc1-c1ccc(CNC(=O)[C@@H]2C[C@@H](O)CN2C(=O)[C@@H](N)C(C)(C)C)cc1.Cl` [VHL ligand, (2S,4R)-1-((S)-2-amino-3,3-dimethylbutanoyl)-4-hydroxy-N-(4-(4-methylthiazol-5-yl)benzyl) pyrrolidine-2-carboxamide hydrochloride, reference compound], the “effect on DeFer-2-mediated ferritin degradation” value in the data set on ferritin (Mus musculus) is listed as “compromised”.
As for `CCCCCCCC/C=C\CCCCCCCC(=O)O` [OA, oleic acid, reference compound], in data set [3], binding was put at a Kd of 12.8 ± 2.89 µM.

The values are drawn from patent US20260273074A1, “FERRITIN-TARGETING PROTACS AND METHODS OF INDUCING PYROPTOSIS” (Wisconsin Alumni Research Foundation, priority 2023, published 2026).
